Consider nine compounds from publication PMC6532652, “Enantiospecific Synthesis, Chiral Separation, and Biological Activity of Four Indazole-3-Carboxamide-Type Synthetic Cannabinoid Receptor Agonists and Their Detection in Seized Drug Samples” (Frontiers in Chemistry, 2019).

The target in one assay is T1, CB1 (Homo sapiens, UniProt P21554).
T1 construct: gene CNR1; co-expressed with beta-arrestin 2 fused to the complementary fragment
In words: NanoLuc complementation beta-arrestin […] recruitment, live cells. Format: cell-based. To be noted: read-out: CB1 / EC50 (nM) (± 95% CI).

The next assay concerns the target T2, CB2 (Homo sapiens, UniProt P34972).
T2 construct: gene CNR2; co-expressed with beta-arrestin 2 fused to the complementary fragment
The assay is described as above. Format: cell-based. The settings on record: read-out: CB2 / EC50 (nM) (± 95% CI).

T1 sequence (P21554 whole entry, the tested form may be a part): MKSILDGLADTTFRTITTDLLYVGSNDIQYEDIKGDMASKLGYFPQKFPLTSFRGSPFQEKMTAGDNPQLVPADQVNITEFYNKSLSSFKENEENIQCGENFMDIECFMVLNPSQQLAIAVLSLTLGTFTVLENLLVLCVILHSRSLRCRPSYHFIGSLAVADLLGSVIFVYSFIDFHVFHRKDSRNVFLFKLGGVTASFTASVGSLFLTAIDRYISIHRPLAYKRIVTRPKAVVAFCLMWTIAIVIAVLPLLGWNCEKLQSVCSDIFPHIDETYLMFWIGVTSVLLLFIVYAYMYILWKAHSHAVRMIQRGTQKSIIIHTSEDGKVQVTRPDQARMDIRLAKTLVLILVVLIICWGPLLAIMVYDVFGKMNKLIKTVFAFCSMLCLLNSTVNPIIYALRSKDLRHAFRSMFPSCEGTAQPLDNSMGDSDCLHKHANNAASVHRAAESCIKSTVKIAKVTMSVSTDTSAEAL
T2 sequence (P34972 whole entry, the tested form may be a part): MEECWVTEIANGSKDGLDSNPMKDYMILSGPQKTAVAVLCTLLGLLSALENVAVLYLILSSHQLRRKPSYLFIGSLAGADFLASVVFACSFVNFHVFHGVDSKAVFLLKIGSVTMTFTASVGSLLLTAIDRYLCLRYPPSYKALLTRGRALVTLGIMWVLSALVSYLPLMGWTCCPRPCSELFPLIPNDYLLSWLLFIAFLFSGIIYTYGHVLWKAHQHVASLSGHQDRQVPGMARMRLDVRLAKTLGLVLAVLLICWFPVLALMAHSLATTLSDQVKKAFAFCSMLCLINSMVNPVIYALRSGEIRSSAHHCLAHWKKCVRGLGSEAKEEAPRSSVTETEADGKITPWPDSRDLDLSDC

In the case of `CC(C)[C@@H](NC(=O)c1nn(CC2CCCCC2)c2ccccc12)C(N)=O` [compound 4, (R)-AB-CHMINACA], the EC50 on CB1 worked out at 319 nM; at CB2 it was 33.6 nM.
For `CC(C)[C@H](NC(=O)c1nn(CC2CCCCC2)c2ccccc12)C(N)=O` [compound 4, N-(2S)-(1-amino-3-methyl-1-oxobutan-2-yl)-1-(cyclohexylmethyl)-1H-indazole-3-carboxamide] the same measures were 6.16 nM and 1.75 nM.
Take `CC(C)[C@@H](NC(=O)c1nn(Cc2ccc(F)cc2)c2ccccc12)C(N)=O` [compound 1, (R)-AB-FUBINACA]: the EC50 at CB1 was found to be 1480 nM; on CB2, 102 nM.
For `CCCCCn1cc(C(=O)c2cccc3ccccc23)c2ccccc21` [compound 19, JWH-018, reference compound], the EC50 at CB1 was found to be 45.1 nM; on CB2 it was 9.71 nM.
In the case of `COC(=O)[C@H](NC(=O)c1nn(Cc2ccc(F)cc2)c2ccccc12)C(C)C` [compound 2, (R)-AMB-FUBINACA], the results for the EC50 at CB1 and at CB2 were 55.8 nM and 1.19 nM, respectively.
Consider `COC(=O)[C@@H](NC(=O)c1nn(Cc2ccc(F)cc2)c2ccccc12)C(C)C` [compound 2, methyl (2S)-2-(1-(4-fluorobenzyl)-1H-indazole-3-carboxamido)-3-methylbutanoate], for which the EC50 at CB1 was 9.11 nM; on CB2 it was 0.77 nM.
Consider `CC(C)[C@H](NC(=O)c1nn(Cc2ccc(F)cc2)c2ccccc12)C(N)=O` [compound 1, N-(2S)-(1-amino-3-methyl-1-oxobutan-2-yl)-1-(4-fluorobenzyl)-1H-indazole-3-carboxamide], for which the figures for the EC50 at CB1 and at CB2 were 12.9 nM and 1.6 nM, respectively.
As to `COC(=O)[C@H](NC(=O)c1nn(CCCCCF)c2ccccc12)C(C)(C)C` [compound 3, (R)-5F-MDMB-PINACA], the EC50 on CB1 came out at 131 nM; at CB2, 6.87 nM.
Consider `COC(=O)[C@@H](NC(=O)c1nn(CCCCCF)c2ccccc12)C(C)(C)C` [compound 3, (S)-5F-MDMB-PINACA], for which the EC50 at CB1 amounted to 1.78 nM; on CB2, 1.46 nM.
